Experimental data as given in patent US9302999B2, “Substituted triazoles as herbicides” (E. I. DU PONT DE NEMOURS AND COMPANY, priority 2012, dated 2016).
Read-outs that look alike come from different tables or passages of the source.

Tests used:
Assay type in all cases: in vivo
corn (Zea mays) = assay: Test C pre-/postemergence: corn
Procedure, shortened: (§1)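 Preemergence on seeds in loam/sand, postemergence on 2–18 cm (1–4-leaf) plants in peat-based medium; compounds in non-phytotoxic solvent with surfactant. After 13–15 days in greenhouse, visual rating versus controls, 0 (no effect) to 100 (complete control).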

[1] = tested on: foxtail, giant (giant foxtail, Setaria faberii); assay: Test A pre-/postemergence: foxtail, giant; conditions: Setaria faberi, 240 h; for pest or weed control at 125 g/ha: 125 g ai/ha; for pest or weed control at 500 g/ha: 500 g ai/ha
Procedure, shortened: (§2)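 Injury was scored visually on a 0 (no effect) to 100 (complete control) scale versus untreated controls roughly ten days after treatment in the greenhouse. Compounds, formulated in surfactant-containing non-phytotoxic solvent, went on as soil-directed preemergence spray or postemergence to one- to two-leaf plants 2–10 cm tall.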

[2] = tested on: winter wheat (Triticum aestivum); assay: Test C pre-/postemergence: winter wheat
Procedure, shortened: as §1

[3] = tested on: velvetleaf (Abutilon theophrasti); assay: Test A pre-/postemergence: velvetleaf; conditions: Abutilon theophrasti, 240 h; for pest or weed control at 125 g/ha: 125 g ai/ha; for pest or weed control at 500 g/ha: 500 g ai/ha
Procedure, shortened: as §2

kochia (Kochia scoparia) = assay: Test C pre-/postemergence: kochia
Procedure, shortened: as §1

[4] = tested on: velvetleaf (Abutilon theophrasti); assay: Test C pre-/postemergence: velvetleaf
Procedure, shortened: as §1

[5] = tested on: ragweed (common ragweed, Ambrosia elation); assay: Test C pre-/postemergence: ragweed
Procedure, shortened: as §1

[6] = tested on: wheat (Triticum aestivum); assay: Test A pre-/postemergence: wheat; conditions: Triticum aestivum, 240 h; for plant injury at 125 g/ha: 125 g ai/ha; for plant injury at 500 g/ha: 500 g ai/ha
Procedure, shortened: as §2

[7] = tested on: chickweed (common chickweed, Stellaria media); assay: Test C postemergence: chickweed; conditions: 31 g ai/ha, scale 0 to 100 (0 no effect, 100 complete control)
Procedure, shortened: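 Crop and weed plants were grown in peat-vermiculite medium and treated postemergence at the 1- to 4-leaf stage (2-18 cm tall). After 13-15 days in a greenhouse, each species was rated visually against untreated controls on a 0-100 scale (0 no effect, 100 complete control).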

[8] = tested on: morningglory (Ipomoea coccinea); assay: Test C pre-/postemergence: morningglory
Procedure, shortened: as §1

[9] = tested on: morningglory (Ipomoea spp.); assay: Test A pre-/postemergence: morningglory; conditions: Ipomoea, 240 h; for pest or weed control at 125 g/ha: 125 g ai/ha; for pest or weed control at 500 g/ha: 500 g ai/ha
Procedure, shortened: as §2

[10] = tested on: pigweed (Amaranthus retroflexus); assay: Test A pre-/postemergence: pigweed; conditions: Amaranthus retroflexus, 240 h; for pest or weed control at 125 g/ha: 125 g ai/ha; for pest or weed control at 500 g/ha: 500 g ai/ha
Procedure, shortened: as §2

[11] = Postemergence, 31 g ai/ha, scale 0 to 100 (0 no effect, 100 complete control)
[12] = Postemergence, 62 g ai/ha, scale 0 to 100 (0 no effect, 100 complete control)
[13] = Postemergence, 125 g ai/ha, scale 0 to 100, 0 no effect, 100 complete control
[14] = Postemergence, 250 g ai/ha, scale 0 to 100
[15] = Preemergence, 31 g ai/ha, scale of 0 to 100, 0 is no effect, 100 is complete control
[16] = Preemergence, 125 g ai/ha, scale 0 to 100, 0 no effect, 100 complete control
[17] = Preemergence, 250 g ai/ha, scale 0 to 100, 0 no effect, 100 complete control
[18] = Preemergence, 62 g ai/ha, scale of 0 to 100, 0 is no effect, 100 is complete control

SMILES: Cc1nn(-c2ccc(C(F)(F)F)cc2)nc1Cc1ccnc(C(F)(F)F)c1 [Compound 47, 4-[[5-methyl-2-[4-(trifluoromethyl)phenyl]-2H-1,2,3-triazol-4-yl]methyl]-2-(trifluoromethyl)pyridine]
- Plant response rating, Corn (corn (Zea mays); [11]): 5
- Plant response rating, Corn (corn (Zea mays); [12]): 15
- Plant response rating, Corn (corn (Zea mays); [13]): 15
- Plant response rating, Corn (corn (Zea mays); [14]): 25
- Plant response rating, Corn (corn (Zea mays); [15]): 0
- Plant response rating, Corn (corn (Zea mays); Preemergence, 62 g ai/ha, scale 0 to 100, 0 no effect, 100 complete control): 5
- Plant response rating, Corn (corn (Zea mays); [16]): 10
- Plant response rating, Corn (corn (Zea mays); [17]): 40
- pest or weed control at 125 g/ha ([1]; post-emergence, Postemergence, 0 to 100 scale, 0 is no effect, 100 is complete control, read-out: Foxtail, Giant plant response rating): 80%
- pest or weed control at 500 g/ha ([1]; post-emergence, Postemergence, visual rating on 0 to 100 scale (0 no effect, 100 complete control), approximately ten days, read-out: Foxtail, Giant plant response rating): 90%
- pest or weed control at 125 g/ha ([1]; pre-emergence, Preemergence, 0 to 100 scale (0 no effect, 100 complete control), read-out: Plant response rating, Foxtail, Giant): 100%
- pest or weed control at 500 g/ha ([1]; pre-emergence, Preemergence, 0 to 100 scale, 0 is no effect, 100 is complete control, read-out: Plant response rating, Foxtail, Giant): 100%
- Plant response rating, Wheat [2, 11]: 15
- Plant response rating, Wheat [2, 12]: 35
- Plant response rating, Wheat [2, 13]: 45
- Plant response rating, Wheat [2, 14]: 50
- Plant response rating, Wheat [2, 15]: 0
- Plant response rating, Wheat [2, 18]: 5
- Plant response rating, Wheat [2, 16]: 35
- Plant response rating, Wheat [2, 17]: 40
- pest or weed control at 125 g/ha ([3]; post-emergence, Postemergence, 0 to 100 scale, 0 is no effect, 100 is complete control, read-out: Velvetleaf plant response rating): 100%
- pest or weed control at 500 g/ha ([3]; post-emergence, Postemergence, visual rating on 0 to 100 scale (0 no effect, 100 complete control), approximately ten days, read-out: Velvetleaf plant response rating): 100%
- pest or weed control at 125 g/ha ([3]; pre-emergence, Preemergence, 0 to 100 scale (0 no effect, 100 complete control), read-out: Plant response rating, Velvetleaf): 80%
- pest or weed control at 500 g/ha ([3]; pre-emergence, Preemergence, 0 to 100 scale, 0 is no effect, 100 is complete control, read-out: Plant response rating, Velvetleaf): 100%
- Plant response rating, Kochia (kochia (Kochia scoparia); [11]): 65
- Plant response rating, Kochia (kochia (Kochia scoparia); [15]): 85
- Plant response rating, Kochia (kochia (Kochia scoparia); [18]): 90
- Plant response rating, Kochia (kochia (Kochia scoparia); [16]): 98
- Plant response rating, Kochia (kochia (Kochia scoparia); [17]): 98
- Plant response rating, Velvetleaf [4, 11]: 65
- Plant response rating, Velvetleaf [4, 12]: 70
- Plant response rating, Velvetleaf [4, 13]: 80
- Plant response rating, Velvetleaf [4, 14]: 90
- Plant response rating, Velvetleaf [4, 15]: 45
- Plant response rating, Velvetleaf [4, 18]: 60
- Plant response rating, Velvetleaf [4, 16]: 90
- Plant response rating, Velvetleaf [4, 17]: 100
- Plant response rating, Ragweed [5, 11]: 45
- Plant response rating, Ragweed [5, 12]: 65
- Plant response rating, Ragweed [5, 13]: 75
- Plant response rating, Ragweed [5, 14]: 95
- Plant response rating, Ragweed [5, 15]: 5
- Plant response rating, Ragweed [5, 18]: 15
- Plant response rating, Ragweed [5, 16]: 45
- Plant response rating, Ragweed [5, 17]: 80
- plant injury at 125 g/ha ([6]; post-emergence, Postemergence, 0 to 100 scale, 0 is no effect, 100 is complete control, read-out: Wheat plant response rating): 30%
- plant injury at 500 g/ha ([6]; post-emergence, Postemergence, visual rating on 0 to 100 scale (0 no effect, 100 complete control), approximately ten days, read-out: Wheat plant response rating): 50%
- plant injury at 125 g/ha ([6]; pre-emergence, Preemergence, 0 to 100 scale (0 no effect, 100 complete control), read-out: Plant response rating, Wheat): 30%
- plant injury at 500 g/ha ([6]; pre-emergence, Preemergence, 0 to 100 scale, 0 is no effect, 100 is complete control, read-out: Plant response rating, Wheat): 40%
- Plant response rating, Chickweed [7]: 80
- Plant response rating, Morningglory [8, 11]: 75
- Plant response rating, Morningglory [8, 12]: 95
- Plant response rating, Morningglory [8, 13]: 100
- Plant response rating, Morningglory [8, 14]: 100
- Plant response rating, Morningglory [8, 15]: 5
- Plant response rating, Morningglory [8, 18]: 20
- Plant response rating, Morningglory [8, 16]: 50
- Plant response rating, Morningglory [8, 17]: 65
- pest or weed control at 125 g/ha ([9]; post-emergence, Postemergence, 0 to 100 scale, 0 is no effect, 100 is complete control, read-out: Morningglory plant response rating): 90%
- pest or weed control at 500 g/ha ([9]; post-emergence, Postemergence, visual rating on 0 to 100 scale (0 no effect, 100 complete control), approximately ten days, read-out: Morningglory plant response rating): 90%
- pest or weed control at 125 g/ha ([9]; pre-emergence, Preemergence, 0 to 100 scale (0 no effect, 100 complete control), read-out: Plant response rating, Morningglory): 70%
- pest or weed control at 500 g/ha ([9]; pre-emergence, Preemergence, 0 to 100 scale, 0 is no effect, 100 is complete control, read-out: Plant response rating, Morningglory): 80%
- pest or weed control at 125 g/ha ([10]; post-emergence, Postemergence, 0 to 100 scale, 0 is no effect, 100 is complete control, read-out: Pigweed plant response rating): 100%
- pest or weed control at 500 g/ha ([10]; post-emergence, Postemergence, visual rating on 0 to 100 scale (0 no effect, 100 complete control), approximately ten days, read-out: Pigweed plant response rating): 100%
- pest or weed control at 125 g/ha ([10]; pre-emergence, Preemergence, 0 to 100 scale (0 no effect, 100 complete control), read-out: Plant response rating, Pigweed): 100%
- pest or weed control at 500 g/ha ([10]; pre-emergence, Preemergence, 0 to 100 scale, 0 is no effect, 100 is complete control, read-out: Plant response rating, Pigweed): 100%
